The test system of assay [1] is monoclonal cGMP-specific antibody. As to the kind of experiment: Homogeneous competitive QRET cGMP detection with cGMP-specific antibody. As to conditions: for recognition of the nucleotide by the antibody: nucleotide titration, data not shown. The assay is classed as binding. The protocol:
All biochemical assays were performed in a 10 µL final volume using triplicate reactions and three individual experiments unless otherwise indicated. The non-enzymatic and real-time cGMP assays were performed in assay buffer 1 (20 mM HEPES, pH 7.5, 1 mM MgCl2, 0.005% γ-globulins, 0.01% Triton X-100), enzymatic end-point assays in assay buffer 2 (assay buffer 1 without 0.01% Triton X-100), and detection components ([…], antibody, and MT2) were added in the stop buffer (assay buffer 1 supplemented with 10 mM EDTA instead of 1 mM MgCl2). In all buffers, sGMP was equally detected. Buffers for end-point assay were optimized to avoid the used of Triton X-100 during the enzymatic sGC reaction, avoiding the progressive loss of heme, and by using the EDTA in stop buffer to chelate the enzyme essential MgCl2.
After initial assays, cGMP detection protocol was tested in cGMP titration with two antibody (2 ng/well and 4 ng/well) and two Eu(III)-cGMP (1 nM and 5 nM) concentrations. Titrated cGMP (0–250 µM) was added in 5 µL volume and detection solution containing Eu(III)-cGMP, cGMP antibody, and MT2 (1.2 µM or 2.2 µM) in 5 µL volume. Similar titrations were performed with other nucleotides (cAMP, GTP, ATP, ADP, and GMP). cGMP was also titrated in the presence of 0.5 mM GTP. In all of these assays, background controls were performed with six repeats and TRF-signals were monitored multiple times between 5 to 90 min to determine the TRF-signal stability.
Assays were performed with Eu(III)-cGMP concentration dependent individually fixed MT2 (1.2–3.2 µM) quencher concentration. TRF-signals were measured and the Eu(III)-cGMP equilibrium dissociation constant (Kd) for the cGMP-specific antibody was determined using linearized Cheng-Prusoff Equation[59].

The test system of assay [2] is PDEs in mouse brain homogenate. As to the kind of experiment: cGMP hydrolysis (PDE activity) in mouse brain homogenate. The assay is classed as biochemical. As to conditions: 0.1 mg/ml homogenate, 50 µM cGMP, 15 min at 37 °C, 3 µM MT2; read-out: apparent IC50 of cGMP hydrolysis in mouse brain homogenate. The protocol: PDE inhibitors with varying specificity profile, BAY73-6691, sildenafil, and IBMX (0–500 µM), were assayed in a high-speed supernatants of mouse brain homogenates. Reactions were performed in 5 µL volume in the presence of 0.1 mg/ml of homogenate and 50 µM cGMP. After 15 min incubation at 37 °C, detection solution (0.4 µg/ml cGMP antibody, 5 nM Eu(III)-cGMP, and 3.0 µM MT2) was added and TRF-signals were recorded.

Assay [3] has as its target T1, sGC (Homo sapiens, UniProt Q02108+Q02153).
T1 construct: Full-length sGC was purified from Sf9 cells as described previously; made in house; host or cells: Sf9 cells
T1 sequence (Q02108 1-690): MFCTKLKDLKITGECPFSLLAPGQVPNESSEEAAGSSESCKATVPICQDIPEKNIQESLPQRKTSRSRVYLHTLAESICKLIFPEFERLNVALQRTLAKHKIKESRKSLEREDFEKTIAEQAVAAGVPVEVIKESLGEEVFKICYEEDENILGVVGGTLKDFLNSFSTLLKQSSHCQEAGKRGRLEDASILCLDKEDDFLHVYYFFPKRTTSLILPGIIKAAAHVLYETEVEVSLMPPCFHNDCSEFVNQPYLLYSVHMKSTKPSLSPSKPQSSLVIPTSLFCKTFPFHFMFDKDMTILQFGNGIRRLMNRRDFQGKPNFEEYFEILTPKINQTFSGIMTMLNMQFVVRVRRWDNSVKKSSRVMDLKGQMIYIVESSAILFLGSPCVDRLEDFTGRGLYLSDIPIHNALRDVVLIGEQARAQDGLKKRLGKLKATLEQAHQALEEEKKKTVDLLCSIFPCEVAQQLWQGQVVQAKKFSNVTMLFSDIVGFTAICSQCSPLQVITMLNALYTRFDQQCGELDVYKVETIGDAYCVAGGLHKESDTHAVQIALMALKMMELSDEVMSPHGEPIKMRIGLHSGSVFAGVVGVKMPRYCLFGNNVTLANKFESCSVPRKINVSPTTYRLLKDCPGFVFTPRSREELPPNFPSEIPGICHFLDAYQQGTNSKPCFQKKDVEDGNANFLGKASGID
T1 sequence (Q02153 1-619): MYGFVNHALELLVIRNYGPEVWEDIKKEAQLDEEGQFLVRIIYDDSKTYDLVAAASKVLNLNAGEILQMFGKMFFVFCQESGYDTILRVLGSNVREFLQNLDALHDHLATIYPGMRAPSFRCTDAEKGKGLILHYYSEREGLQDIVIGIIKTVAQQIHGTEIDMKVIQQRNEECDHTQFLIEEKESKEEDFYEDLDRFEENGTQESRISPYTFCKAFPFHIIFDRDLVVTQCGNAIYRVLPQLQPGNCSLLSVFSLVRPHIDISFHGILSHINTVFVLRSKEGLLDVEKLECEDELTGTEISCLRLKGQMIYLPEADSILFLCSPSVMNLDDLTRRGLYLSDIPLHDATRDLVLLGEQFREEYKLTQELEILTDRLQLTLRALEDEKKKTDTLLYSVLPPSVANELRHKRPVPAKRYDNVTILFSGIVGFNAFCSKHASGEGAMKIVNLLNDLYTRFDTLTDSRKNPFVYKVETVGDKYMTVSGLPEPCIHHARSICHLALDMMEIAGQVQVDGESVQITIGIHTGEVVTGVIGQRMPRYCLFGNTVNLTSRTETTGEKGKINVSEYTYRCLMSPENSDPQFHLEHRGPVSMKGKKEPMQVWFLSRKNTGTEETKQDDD
Briefly: sGC activity assay, endpoint QRET cGMP detection. It is filed as biochemical. The conditions noted are these: for EC50: 2 ng sGC, 0.5 mM GTP, 30 min at 37 °C, read-out: EC50 of concentration dependent sGC activation; for effect on sGC activity at fixed saturating concentration: 10 µM NS2028, 10 µM DEA-NO; for fold increase for cGMP compared to untreated sGC: 100 µM gemfibrozil or 10 µM DEA-NO. The protocol:
Optimized cGMP detection platform was applied to all enzymatic assays. For non-stimulated conditions, purified sGC enzyme (0.04–276 ng/well) was incubated with or without 0.5 mM GTP in the assay buffer 2 for 10 to 45 min at 37 °C in 5 µL volume. The reaction was stopped by adding 5 µL of detection solution (0.4 µg/ml cGMP antibody, 5 nM Eu(III)-cGMP, and 2.2 µM MT2) containing EDTA. For NO stimulated sGC activity, the same reactions were performed in the presence of 10 or 100 µM DEA-NO added with GTP. DEA-NO was always prepared from a 100 mM stock solution in 10 mM NaOH, which was stored at − 80 °C. TRF-signals were always monitored multiple times between 5 to 90 min to determine the TRF-signal stability.
In assays where dose-dependent effect of three sGC activators, DEA-NO, YC-1, and riociguat, were tested, the compounds (0–100 µM) were incubated with 2 ng sGC. Reactions were initiated by adding 0.5 mM GTP to reach 5 µL volume and incubated for 30 min at 37 °C. Reactions were stopped by adding 5 µL of detection solution and TRF-signals were recorded. To evaluate the linearity of the cGMP production by sGC, 3 or 12 ng of sGC were used for resting conditions and 0.5 ng for 100 µM DEA-NO activated sGC. Assays were performed in separate plates and reactions were stopped at indicated time points (5–60 min), before TRF-signal monitoring as above.
For assays containing fixed concentration of sGC regulators, 5 ng of sGC was incubated with one, or the indicated combination of following molecules: 10 µM NS2028, 100 nM BAY58-2667, 100 µM gemfibrozil, 10 µM BAY41-2272, 100 µM Cbi, 10 µM DEA-NO or SNP with glutathione (100 µM each). 5 µL reactions containing 0.5 mM GTP were incubated for 10 min at 37 °C and stopped by adding the detection components. TRF-signals were recorded as described above.
Cell lysate interferences were evaluated in an endpoint assay with different amounts of sGC (0.008–166.7 ng) and 0.07 or 0.14 mg/ml of COS7 cell lysate. sGC/lysate mixture was supplemented with 0.5 mM GTP in the presence or absence of 10 µM DEA-NO, and 5 µL reaction was incubated for 10 min at 37 °C. Detection components were thereafter added and TRF-signals were monitored as above.
Reproducibility and HTS compatibility were determined by running Z’-factor assay using 24 sGC reactions with or without activity modulation in three consecutive days. Assays were performed with fixed sGC concentration (5 ng/well) and sGC activation was performed using gemfibrozil (100 µM) or DEA NONOate (10 µM). All assays were initiated by the addition of 0.5 mM GTP to obtain a final 5 µL reaction volume, 37 °C for 10 min. Detection solution was added and TRF-signals were monitored as previously. Z’-factors were calculated using sGC basal activity as negative and activated reactions (NO or gemfibrozil) as positive controls.
In parallel to all assays, changes in TRF-signal in response to different concentrations of exogenously added cGMP were recorded to generate a cGMP standard curve. The cGMP standard was created using 1:3 dilution series to maximize the linear part of the standard, which was used to calculate the amount of cGMP generated by sGC during the reaction. Only at the linear area, the TRF-signal relation to cGMP concentration can be determined.

Assay [4] has as its target T1, sGC. Set-up: method as in PMID 26777256. As to conditions: cited from earlier work.
The next assay relates to PDE5A. Set-up: method as in PMID 10574925. As to conditions: read-out: Km of PDE5A for cGMP; cited from earlier work.

Read-outs that look alike come from different tables or passages of the source.

`Nc1ncnc2c1ncn2[C@@H]1O[C@H](COP(=O)(O)OP(=O)(O)O)[C@@H](O)[C@H]1O` [ADP]: the “recognition of the nucleotide by the antibody” value in assay [1] is given as “could not be recognized by the antibody”.
On the same count and under the same terms, for `Nc1ncnc2c1ncn2[C@@H]1O[C@H](COP(=O)(O)OP(=O)(O)OP(=O)(O)O)[C@@H](O)[C@H]1O` [ATP] the value was “could not be recognized by the antibody”.
Regarding `C[C@H](Cc1nc2c(cnn2-c2ccccc2Cl)c(=O)[nH]1)C(F)(F)F` [BAY73-6691], in assay [2], the IC50 was 81.3 ± 4.8 µM.
As for `CCN(CC)/[N+]([O-])=N/O.CCNCC` [DEA-NO, diethylamine NONOate], the EC50 on sGC [3] amounted to 0.93 ± 0.1 µM. Also, the “effect on sGC activity at fixed saturating concentration” value on sGC [3] (5 ng sGC, 10 min at 37 °C) was “largest increase in sGC activity”. Besides, on sGC [3] (10 µM DEA-NO, 5 ng sGC/well, 10 min at 37 °C, 0.14 mg/ml COS7 lysate), the “NO-stimulated sGC specific activity in the presence of COS7 lysate” value came to 19.3 ± 4.2 µmol/mg/min. Besides, the “NO-stimulated sGC specific activity” value on sGC [3] (10 µM DEA-NO, 5 ng sGC/well, 10 min at 37 °C, buffer) turned out to be 4.8 ± 1.0 µmol/min/mg. On sGC [3] (5 ng sGC/well, 10 min at 37 °C), the “fold increase for cGMP compared to untreated sGC” value is reported as ~50 fold.
For the molecule `Nc1nc2c(ncn2[C@@H]2O[C@H](COP(=O)(O)OP(=O)(O)OP(=O)(O)O)[C@@H](O)[C@H]2O)c(=O)[nH]1` [GTP, guanosine triphosphate], the Km at sGC [4] (NO-activated sGC, read-out: Km for GTP, NO-activated sGC) is < 75 µM; on sGC [4] (resting sGC, read-out: Km for GTP, resting sGC), ~220 µM. In addition, in assay [1], the “specificity of the antibody for cGMP over the nucleotide” value was 1000 fold.
`CC(C)Cn1c(=O)n(C)c(=O)c2[nH]cnc21` [IBMX, 3-isobutyl-1-methylxanthine]: the half-maximal inhibitory concentration (IC50) in assay [2] came out at 9.9 ± 0.6 µM.
As to `O=c1onc2n1-c1cc(Br)ccc1OC2` [NS2028, 8-bromo-4H-2,5-dioxa-3,9b-diaza-cyclopenta[a]naphthalen-1-one], the “effect on sGC activity at fixed saturating concentration” value on sGC [3] (5 ng sGC, 10 min at 37 °C) is on record as “no significant effect”. Besides, the “effect on sGC activation when assayed together with BAY58-2667 or gemfibrozil” value on sGC [3] (10 µM NS2028 with 100 nM BAY58-2667 or 100 µM gemfibrozil, 5 ng sGC, 10 min at 37 °C) was “increased the activation”.
On to `OCc1ccc(-c2nn(Cc3ccccc3)c3ccccc23)o1` [YC-1, 3-(5′-hydroxymethyl-2′-furyl)-1-benzyl indazole], for which, on sGC [3], the EC50 was determined as 5.7 ± 1 µM.
As for `Nc1ncnc2c1ncn2[C@@H]1O[C@@H]2COP(=O)(O)O[C@H]2[C@H]1O` [cAMP, cyclic adenosine monophosphate], in assay [1], the “recognition of the nucleotide by the antibody” value is recorded as “could not be recognized by the antibody”.
Regarding `Nc1nc2c(ncn2[C@@H]2O[C@@H]3COP(=O)(O)O[C@H]3[C@H]2O)c(=O)[nH]1` [cGMP, Cyclic 3´,5´-guanosine monophosphate], the Km in the assay on PDE5A is ~2 µM. In addition, the EC50 was 0.72 ± 0.07 µM in assay [1] (1 nM Eu(III)-cGMP and 2 ng of antibody/well, read-out: EC50 value of cGMP titration (displacement of Eu(III)-cGMP from antibody)); 1.8 ± 0.22 µM in assay [1] (5 nM Eu(III)-cGMP and 4 ng of antibody/well, read-out: EC50 of cGMP titration (displacement of Eu(III)-cGMP from antibody)).
For the molecule `Cc1ccc(C)c(OCCCC(C)(C)C(=O)O)c1` [gemfibrozil], the “fold increase for cGMP compared to untreated sGC” value at sGC [3] (5 ng sGC/well, 10 min at 37 °C) was “approximately 20 fold”.
In the case of `COC(=O)N(C)c1c(N)nc(-c2nn(Cc3ccccc3F)c3ncccc23)nc1N` [riociguat], the EC50 on sGC [3] turned out to be 0.26 ± 0.1 µM.
Regarding `CCCc1nn(C)c2c(=O)[nH]c(-c3cc(S(=O)(=O)N4CCN(C)CC4)ccc3OCC)nc12` [sildenafil], the IC50 in assay [2] amounted to 45.2 ± 6.8 µM.

The IC50 is the concentration that inhibits the measured activity by half. The Km is the concentration of substrate that gives half-maximal velocity.

The values above are taken from PMC7562898, “Homogeneous single-label cGMP detection platform for the functional study of nitric oxide-sensitive (soluble) guanylyl cyclases and cGMP-specific phosphodiesterases” (Scientific Reports, 2020).
